Source: PubChem BioAssay AID1421 (Emory University Molecular Libraries Screening Center, 2008)
The source made the active and inactive calls. How the calls were made is not given here.

Each molecule was assayed against Prostaglandin E2 receptor EP2 subtype (Homo sapiens) (UniProt P43116) (assay: EP2 receptor modulators, dose response, cell-based, human EP2, PGE2 EC50 shift (AID 1421)). Conditions: EP2-expressing cells, PGE2 EC50 shift by compound.
Chain of Prostaglandin E2 receptor EP2 subtype (Homo sapiens) (P43116 whole entry, looked up): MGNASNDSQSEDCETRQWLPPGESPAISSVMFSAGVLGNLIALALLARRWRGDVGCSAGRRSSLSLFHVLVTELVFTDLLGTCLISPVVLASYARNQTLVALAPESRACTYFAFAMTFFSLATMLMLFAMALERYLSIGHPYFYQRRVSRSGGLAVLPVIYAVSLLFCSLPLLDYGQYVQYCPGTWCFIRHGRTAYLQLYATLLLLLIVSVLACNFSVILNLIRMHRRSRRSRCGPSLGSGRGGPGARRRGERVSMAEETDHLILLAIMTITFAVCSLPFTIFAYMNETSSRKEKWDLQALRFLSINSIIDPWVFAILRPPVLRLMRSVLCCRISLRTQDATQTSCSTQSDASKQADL

Compound | outcome
Cn1nc(-c2ccccc2)c(-c2nc(-c3cccc(C(F)(F)F)c3)no2)c1Cl | active
O=C(CSc1nnc(-c2ccc(Cl)cc2)n1Cc1ccco1)c1cccs1 | active
O=c1[nH]c2ccc(Cl)cc2c(-c2ccccc2)c1N1CCOCC1 | active
CC(C)C1COC(c2cccn2Cc2ccccc2Cl)=N1 (stereo not given) | active
Cc1ccc(NCc2ccccc2OCc2ccccc2F)cc1 | active
NC(=NCCC[C@H](N)C(=O)O)N[N+](=O)[O-] | active
CCOC(=O)c1cc(C)sc1NC(=O)c1ccc(Cl)s1 | active

Same assay, conditions: EP2-expressing cells, PGE2 EC50 shift by compound; measured here: PGE2 EC50 at 6.7 uM compound

Compound | PGE2 EC50 with compound [nM]
CC1(c2cc([N+](=O)[O-])cc([N+](=O)[O-])c2)CC(C)(C)N(C(=O)c2ccccc2)c2ccccc21 (stereo not given) | 1.32
CCOC(=O)c1ccccc1NC(=O)C(C)Oc1ccccc1 (stereo not given) | 1.35
c1ccc(Nc2nc(N3CCNCC3)nc(N3CCOCC3)n2)cc1 | 1.46
CCCCOc1ccc(-c2c(C(=O)Nc3ccccc3)c(C)[nH]c(=S)c2C#N)cc1 | 2.8
Cc1cc(C(=O)NCC(c2ccco2)N(C)C)no1 (stereo not given) | 2.55
CC(C)CNC(=O)C(=O)NNC(=O)c1ccco1 | 2.49
C#CCN1C(C)=C(C(=O)OC)C(c2cccc([N+](=O)[O-])c2)C(C(=O)OCC)=C1C (stereo not given) | 2.62
Cc1cc(OCC(=O)OC(C)C)c2c3c(c(=O)oc2c1)CCCC3 | 0.81
O=C(CN1CCN(Cc2ccccc2)CC1)Nc1ccccc1-c1ccccc1 | 2.97
CCCCNc1nc2c(S(=O)(=O)c3ccccc3)nnn2c2ccccc12 | 1.17
Cc1ccc(C)n1-c1ccc(N(C)C)cc1 | 0.75
CN=C1CC(SC)=C1c1ccc(C)cc1 | 0.84
CCOC(=O)C1=C(C)N(C)C(C)=C(C(=O)OCC)C1c1ccsc1 | 0.79
Cn1nc(-c2ccccc2)c(-c2nc(-c3cccc(C(F)(F)F)c3)no2)c1Cl | 0.81
CCOC(=O)C1=NN(c2ccc(C)cc2)C2(S1)SC(C(C)=O)=C(C)N2c1ccccc1 (stereo not given) | 0.31
O=S(=O)(c1ccc(F)c(Cl)c1)N1CCCC1 | 1.02
O=C(CSc1nnc(-c2ccc(Cl)cc2)n1Cc1ccco1)c1cccs1 | 2.65

Compound | PGE2 EC50 with compound [nM]
CCOC(=O)c1c(NC(=O)c2cccs2)sc2c1CCN(C(=O)OCC)C2 | 1.53
Cc1nc2c3cc(F)ccc3n(Cc3ccccc3)c2s1 | 0.57
O=c1cc(N2CCCCC2)c(-c2ccccc2)nn1Cc1cccc(F)c1 | 0.33
Cc1ccc(N=Nc2c(N)[nH]n3c(=O)c4c(nc23)CCCC4)cc1 | 0.81
O=C1C2C3c4ccccc4C(c4ccccc43)C2c2nc3ccccc3n21 (stereo not given) | 1.4
O=c1[nH]c2ccc(Cl)cc2c(-c2ccccc2)c1N1CCOCC1 | 1.13
O=C(COc1ccc(Br)cc1)Nc1ccc(-c2nnc(-c3ccco3)o2)cc1 | 0.9
O=C(CSc1nnc(-c2cc3ccccc3cc2O)n1Cc1ccco1)c1ccc(F)cc1 | 1.35
Oc1ccccc1-c1nc(N2CCCC2)c2ccccc2n1 | 0.64
Cc1ccc(Cl)cc1NC1=NC(=S)N(C(C)C)C12CCCCC2 | 0.77
CCCCCOC(=O)c1[nH]c2c(c1C)C(=O)C(C(=O)OC)C(C)C2 (stereo not given) | 2.63
COc1ccc(S(=O)(=O)N(Cc2ccccc2)Cc2nc(-c3ccccc3)no2)cc1 | 1.16
Cc1cccc(Oc2sc(C(=O)c3ccccc3)c(N)c2C#N)c1 | 1.51
O=C(c1ccc(Cl)cc1)c1oc2ccccc2c1CS(=O)c1ccc(Cl)cc1 (stereo not given) | 0.88
COc1c(O)ccc(/C=C(\C#N)c2nc3ccccc3[nH]2)c1[N+](=O)[O-] | 1.1
CC(C)C1COC(c2cccn2Cc2ccccc2Cl)=N1 (stereo not given) | 0.95
